# Assay results: ChEMBL document CHEMBL3392926, “Antiprotozoal Activity Profiling of Approved Drugs: A Starting Point toward Drug Repositioning”
# Columns and labels:
# cells [1] = format: functional, cell-based; conditions: Rattus norvegicus, L6, 72 h
# Description: DNDI: Cytotoxicity in Vitro, 72 hour, in rat skeletal myoblast cells
# Plasmodium falciparum = test: microbe, parasite or virus in culture; format: functional, organism-based, K1
# Description: DNDI: Malaria in Vitro, 72 hour
# cells [2] = format: functional, cell-based; conditions: Mus musculus, NMRI, BalbC or CD1 mice, Macrophage, 96 h
# Description: DNDI: Cytotoxicity in Vitro, 96 hour, in mouse macrophages (infected-amastigotes)
# [3] = test system: Trypanosoma brucei rhodesiense; test: microbe, parasite or virus in culture; format: functional, organism-based, STIB 900
# Description: DNDI: HAT in Vitro, 72 hour
# Leishmania donovani [4] = test: microbe, parasite or virus in culture; format: functional, organism-based, MHOM/ET/67/L82
# Description: DNDI: Leish (macro) in Vitro, 96 hour
# Trypanosoma cruzi = test: microbe, parasite or virus in culture; format: functional, organism-based, Tulahuen C4 (LacZ)
# Description: DNDI: Chagas in Vitro, 96 hour
# Leishmania donovani [5] = test: microbe, parasite or virus in culture; format: functional, organism-based, MHOM/ET/67/L82; remark: listed apart in the source
# Description: DNDI: Leish (axenic) in Vitro, 72 hour
# [6] = Plasmodium falciparum, K1, 72 h
# [7] = Trypanosoma brucei, STIB 900, 72 h
# [8] = Leishmania donovani, MHOM/ET/67/L82, 96 h
# [9] = Trypanosoma cruzi, Tulahuen C4 (LacZ), 96 h
# [10] = Leishmania donovani, MHOM/ET/67/L82, 72 h
Molecule,IC50 (cells [1]) [µM],IC50 (Plasmodium falciparum; [6]) [µM],IC50 (cells [2]) [µM],"IC50 [3, 7] [µM]",IC50 (Leishmania donovani [4]; [8]) [µM],IC50 (Trypanosoma cruzi; [9]) [µM],IC50 (Leishmania donovani [5]; [10]) [µM],IC50 (Trypanosoma cruzi) [µM],IC50 (Plasmodium falciparum) [µM],IC50 (Leishmania donovani [5]) [µM],IC50 [3] [µM],IC50 (Leishmania donovani [4]) [µM]
CC(C)CN(C[C@@H](O)[C@H](Cc1ccccc1)NC(=O)O[C@H]1CCOC1)S(=O)(=O)c1ccc(N)cc1,160,15.2,> 59.3,28.5,> 59.3,,,,,,,
CNCC[C@H](Oc1ccc(C(F)(F)F)cc1)c1ccccc1,15,,32.3,,,,,,,,,
CC(C)CN(C[C@@H](O)[C@H](Cc1ccccc1)NC(=O)O[C@H]1CO[C@H]2OCC[C@H]21)S(=O)(=O)c1ccc(N)cc1,,46.9,,31.4,> 54.8,92.2,,,,,,
CSc1ccc2c(c1)N(CC[C@H]1CCCCN1C)c1ccccc1S2,> 243,,> 81,,,,,,,,,
C[C@@H](Cc1cccc(C(F)(F)F)c1)NCCOC(=O)c1ccccc1,49.1,6.52,> 85.4,21.1,54.4,73.7,,,,,,
CCC[C@@]1(CCc2ccccc2)CC(O)=C([C@H](CC)c2cccc(NS(=O)(=O)c3ccc(C(F)(F)F)cn3)c2)C(=O)O1,53.4,44.6,> 49.8,26.4,> 49.8,28.2,1.64,,,,,
CC(C)(C)NC(=O)[C@@H]1CC2CCCCC2CN1C[C@@H](O)[C@H](Cc1ccccc1)NC(=O)[C@H](CC(N)=O)NC(=O)c1ccc2ccccc2n1 (some centres undefined),18.2,11.9,> 44.7,12.3,> 44.7,17.1,77.4,,,,,
C[C@H](N)C12CC3CC(CC(C3)C1)C2,311,0.97,> 167,13.8,> 167,,,,,,,
CC(C)(C)NC(=O)[C@@H]1CN(Cc2cccnc2)CCN1C[C@@H](O)C[C@@H](Cc1ccccc1)C(=O)N[C@H]1c2ccccc2C[C@H]1O,> 141,6.03,> 42.3,48.2,> 42.3,93.5,> 141,,,,,
Cc1c(O)cccc1C(=O)N[C@@H](CSc1ccccc1)[C@H](O)CN1C[C@H]2CCCC[C@H]2C[C@H]1C(=O)NC(C)(C)C,12.1,10.4,> 52.8,20.6,20.2,10.2,9.62,,,,,
Nc1nc(N)c2nc(-c3ccccc3)c(N)nc2n1,8.53,17.2,> 11.8,21.7,> 11.8,22.7,,,,,,
CN1CC(=O)N2[C@H](c3ccc4c(c3)OCO4)c3[nH]c4ccccc4c3C[C@@H]2C1=O,221,> 12.8,> 77,97.6,> 77,8.6,40.1,,,,,
CCCSc1ccc2[nH]c(NC(=O)OC)nc2c1 [ALBENDAZOLE],0.41,,11.3,14.7,> 3.77,12.3,> 113,,,,,
NC12CC3CC(CC(C3)C1)C2 [AMANTADINE],215,5.67,> 198,52.8,> 198,,> 595,,,,,
CN(C)CCC=C1c2ccccc2CCc2ccccc21 [AMITRIPTYLINE],42.2,1.16,36.1,3.03,> 10.8,35.1,,,,,,
Clc1ccc2c(c1)C(N1CCNCC1)=Nc1ccccc1O2 [AMOXAPINE],16.2,,31.9,,,,,,,,,
O=C(O)COCCN1CCN(C(c2ccccc2)c2ccc(Cl)cc2)CC1 (centres undefined) [CETIRIZINE],149,20,> 70.5,99.5,> 70.5,,,,,,,
CCN(CC)CCCC(C)Nc1ccnc2cc(Cl)ccc12 (centres undefined) [CHLOROQUINE],50.6,,> 58.9,3.81,> 58.9,99.2,> 196,,,,,
CN/C(=N\CCSCc1nc[nH]c1C)NC#N [CIMETIDINE],302,29.2,> 119,> 396,> 119,,> 396,,,,,
CN(C)CCCN1c2ccccc2CCc2ccc(Cl)cc21 [CLOMIPRAMINE],19.8,,31.8,,,,,,,,,
Clc1ccc(C(OCCN2CCCCC2)c2ccccc2)cc1 (centres undefined) [CLOPERASTINE],43.4,0.87,90.9,4.91,> 30.3,9.46,,,,,,
Nc1ccc(S(=O)(=O)c2ccc(N)cc2)cc1 [DAPSONE],204,,> 121,,> 121,,> 403,,,,,
CCN(CC)CCOc1ccc(/C(=C(/Cl)c2ccccc2)c2ccccc2)cc1 [ENCLOMIPHENE],13.1,,24.6,,,,,,,,,
CCn1cc(C(=O)O)c(=O)c2cc(F)c(N3CCNCC3)nc21 [ENOXACIN],25,76.8,> 93.7,,> 93.7,,> 312,,,,,

Molecule,IC50 (cells [1]) [µM],IC50 (Plasmodium falciparum; [6]) [µM],IC50 (cells [2]) [µM],"IC50 [3, 7] [µM]",IC50 (Leishmania donovani [4]; [8]) [µM],IC50 (Trypanosoma cruzi; [9]) [µM],IC50 (Leishmania donovani [5]; [10]) [µM],IC50 (Trypanosoma cruzi) [µM],IC50 (Plasmodium falciparum) [µM],IC50 (Leishmania donovani [5]) [µM],IC50 [3] [µM],IC50 (Leishmania donovani [4]) [µM]
CC(=O)OCC(CCn1cnc2cnc(N)nc21)COC(C)=O [FAMCICLOVIR],180,> 156,> 93.4,,> 93.4,,> 311,,,,,
OC(Cn1cncn1)(Cn1cncn1)c1ccc(F)cc1F [FLUCONAZOLE],> 294,,> 98,,> 98,9.96,,,,,,
OCCN1CCN(CCCN2c3ccccc3Sc3ccc(C(F)(F)F)cc32)CC1 [FLUPHENAZINE],11.5,,22.9,,,,,,,,,
Nc1nc2c(ncn2COC(CO)CO)c(=O)[nH]1 [GANCICLOVIR],179,> 196,> 118,,> 118,,> 392,,,,,
CC(=O)N1CCN(c2ccc(OCC3COC(Cn4ccnc4)(c4ccc(Cl)cc4Cl)O3)cc2)CC1 (centres undefined) [KETOCONAZOLE],51,,,33.1,> 18.8,0.27,38.8,,,,,
CN1CCC(=C2c3ccccc3CC(=O)c3sccc32)CC1 [KETOTIFEN],147,0.75,> 97,15.2,> 97,,> 291,,,,,
Cc1oncc1C(=O)Nc1ccc(C(F)(F)F)cc1 [LEFLUNOMIDE],124,> 18.5,> 111,,> 111,,21.8,,,,,
O=C(O)c1nn(Cc2ccc(Cl)cc2Cl)c2ccccc12 [LONIDAMINE],273,> 15.6,> 93.4,,> 93.4,,8.66,,,,,
Cc1ncc([N+](=O)[O-])n1CCO [METRONIDAZOLE],339,,> 175,,> 175,,,,,,,
O=C1CN(/N=C/c2ccc([N+](=O)[O-])o2)C(=O)N1 [NITROFURANTOIN],90.3,,125,0.5,> 41.8,4.35,2.12,,,,,
Cc1ncc([N+](=O)[O-])n1CC(O)CCl (centres undefined) [ORNIDAZOLE],> 408,,> 136,25.9,> 136,,> 136,,,,,
Nc1nc(O)c2ncn(CCC(CO)CO)c2n1 [PENCICLOVIR],220,,> 118,> 395,> 118,,> 395,,,,,
Cc1nc2ccccn2c(=O)c1CCN1CCC(C(=O)c2ccc(F)cc2)CC1 [PIRENPERONE],232,4.35,> 76.2,30,> 76.2,,,,,,,
CN1CCC(=C2c3ccccc3CCc3sccc32)CC1 [PIZOTYLINE],45,1.86,> 102,3.99,> 33.9,30.6,,,,,,
NC(=O)c1cnccn1 [PYRAZINAMIDE],458,,> 244,> 812,> 244,,> 812,,,,,
CCc1nc(N)nc(N)c1-c1ccc(Cl)cc1 [PYRIMETHAMINE],2.51,,> 12.1,6.75,> 12.1,5.71,,,,,,
CC(C)c1nc(CN(C)C(=O)N[C@H](C(=O)N[C@@H](Cc2ccccc2)C[C@H](O)[C@H](Cc2ccccc2)NC(=O)OCc2cncs2)C(C)C)cs1 [RITONAVIR],,16.2,,4.3,> 41.6,20.7,8.97,,,,,
Cn1c([N+](=O)[O-])cnc1N1CCN(S(C)(=O)=O)C1=O [SATRANIDAZOLE],> 311,,> 104,18.7,> 104,19.1,10.4,,,,,
Cc1ncc([N+](=O)[O-])n1CC(C)O (centres undefined) [SECNIDAZOLE],> 483,,> 161,28.7,> 161,> 161,> 161,,,,,
Cc1cn([C@H]2C=C[C@@H](CO)O2)c(=O)[nH]c1=O [STAVUDINE],266,,> 134,,> 134,,> 446,,,,,
Nc1ccc(S(=O)(=O)Nc2ncccn2)cc1 [SULFADIAZINE],20.6,1.44,40.1,18.4,> 12,24.9,,,,,,
Cc1cn([C@H]2C[C@H](N=[N+]=[N-])[C@@H](CO)O2)c(=O)[nH]c1=O [ZIDOVUDINE],207,,> 112,,> 112,,> 374,,,,,
AURANOFIN,,,,,,,,2.27,1.67,0.11,0.01,> 1.47
